# Reference: article PMC7998309, “Structural-Based Optimizations of the Marine-Originated Meridianin C as Glucose Uptake Agents by Inhibiting GSK-3β” (Marine Drugs, 2021)
# Key:
# [1] = MTT assay for cell viability (cytotoxicity); type: cell-based, human; conditions: human; HepG2 cells, 48 h incubation, MTT
# Procedure: (§1) The hepatocyte cell line HepG2 cells obtained from the Type Culture Collection of the Chinese Academy of Sciences (Shanghai, China) were maintained in high-glucose DMEM (Gibco) supplemented with 10% fetal bovine serum (FBS) and 1% penicillin-streptomycin in an atmosphere of 5% CO2 at 37 °C.
# Into a 96-well plate, 1 × 10^3 HepG2 cells per well were seeded. After 24 h, stock solutions of test compounds in DMSO were diluted in DMEM to ≤0.1% final DMSO concentration. Cells were treated with various concentrations (2.5–25 µM) of tested compounds for 48 h, and the MTT solution (0.5 mg/mL) was added. After 4 h of incubation at 37 °C for MTT-formazan formation, the supernatant was discarded and 100 µL of DMSO was applied into each well to dissolve formazan crystals. Absorbance at 490 nm was determined spectrophotometrically by using a microplate reader (Epoch, BioTek Instruments, Inc., Winooski, VT, USA).
# [2] = system: HepG2 cells; test: Cell glucose uptake assay in HepG2 cells; type: cell-based, human; conditions: relative glucose uptake at 5 µM in HepG2 cells, 3 h, compared with original glucose concentration of the medium; na = not active at 5 µM
# Procedure: as §1
# Into a 96-well plate, 5 × 10^3 HepG2 cells per well were seeded. After 48 h, phenol red-free DMEM (Gibco) with 1% FBS was transferred to deprive the cells overnight, and then the tested compounds dissolved in a glucose-HEPES buffer (glucose concentration was 100 µg/mL) at a concentration of 5 µM were added to the culture system. Three hours later, the culture supernatants were collected and the glucose concentrations were detected using the Glucose (GO) Assay Kit (Sigma-Aldrich Corp.). Compared with the original glucose concentration of the buffer, the relative glucose uptake was calculated.
SMILES,melting point [°C],CC50 at 48 h [1] [µM],Cell Glucose Uptake (%) [2]
"Cc1ccc(C(=O)Nc2ccc(-c3cnc(N)nc3-c3c[nH]c4ccc(Br)cc34)cc2)cc1 [A21, N-(4-(2-amino-4-(5-bromo-1H-indol-3-yl)pyrimidin-5-yl)phenyl)-4-methylbenzamide]",291.7 to 292.4,6.9,24%
"Nc1ncc(-c2ccc(NC(=O)c3ccc4ccccc4c3)cc2)c(-c2c[nH]c3ccc(Br)cc23)n1 [A29, N-(4-(2-amino-4-(5-bromo-1H-indol-3-yl)pyrimidin-5-yl)phenyl)-2-naphthamide]",189.3 to 190.2,> 25,–
"Fc1ccccc1Nc1nccc(-c2c[nH]c3ccc(Br)cc23)n1 [B1, 4-(5-Bromo-1H-indol-3-yl)-N-(2-fluorophenyl) pyrimidin-2-amine]",206.6 to 207.1,10.5,20%
"Fc1cccc(Nc2nccc(-c3c[nH]c4ccc(Br)cc34)n2)c1 [B2, 4-(5-Bromo-1H-indol-3-yl)-N-(3-fluorophenyl) pyrimidin-2-amine]",211.8 to 212.4,10.7,no change
"Fc1ccc(Nc2nccc(-c3c[nH]c4ccc(Br)cc34)n2)cc1 [B3, 4-(5-Bromo-1H-indol-3-yl)-N-(4-fluorophenyl) pyrimidin-2-amine]",246.8 to 247.7,12.8,7.4%
"Clc1ccccc1Nc1nccc(-c2c[nH]c3ccc(Br)cc23)n1 [B4, 4-(5-Bromo-1H-indol-3-yl)-N-(2-chlorophenyl) pyrimidin-2-amine]",173.8 to 174.6,> 25,22%
"Clc1cccc(Nc2nccc(-c3c[nH]c4ccc(Br)cc34)n2)c1 [B5, 4-(5-Bromo-1H-indol-3-yl)-N-(3-chlorophenyl) pyrimidin-2-amine]",210.3 to 211.4,> 25,–
"Clc1ccc(Nc2nccc(-c3c[nH]c4ccc(Br)cc34)n2)cc1 [B6, 4-(5-Bromo-1H-indol-3-yl)-N-(4-chlorophenyl) pyrimidin-2-amine]",273.5 to 274.8,21.1,14.4%
"Brc1ccc2[nH]cc(-c3ccnc(Nc4ccccc4Br)n3)c2c1 [B7, 4-(5-Bromo-1H-indol-3-yl)-N-(2-bromophenyl) pyrimidin-2-amine]",177.8 to 178.4,> 25,26%
"Brc1cccc(Nc2nccc(-c3c[nH]c4ccc(Br)cc34)n2)c1 [B8, 4-(5-Bromo-1H-indol-3-yl)-N-(3-bromophenyl) pyrimidin-2-amine]",214.8 to 215.6,18.7,–
"Brc1ccc(Nc2nccc(-c3c[nH]c4ccc(Br)cc34)n2)cc1 [B9, 4-(5-Bromo-1H-indol-3-yl)-N-(4-bromophenyl) pyrimidin-2-amine]",276.7 to 277.5,20.3,12.6%
"FC(F)(F)c1ccccc1Nc1nccc(-c2c[nH]c3ccc(Br)cc23)n1 [B10, 4-(5-Bromo-1H-indol-3-yl)-N-(2-(trifluoromethyl)phenyl) pyrimidin-2-amine]",150.5 to 151.3,> 25,20.2%
"FC(F)(F)c1cccc(Nc2nccc(-c3c[nH]c4ccc(Br)cc34)n2)c1 [B11, 4-(5-Bromo-1H-indol-3-yl)-N-(3-(trifluoromethyl)phenyl) pyrimidin-2-amine]",171.8 to 172.3,17.6,–
"FC(F)(F)c1ccc(Nc2nccc(-c3c[nH]c4ccc(Br)cc34)n2)cc1 [B12, 4-(5-Bromo-1H-indol-3-yl)-N-(4-(trifluoromethyl)phenyl) pyrimidin-2-amine]",279.5 to 280.3,> 25,–
"Cc1ccccc1Nc1nccc(-c2c[nH]c3ccc(Br)cc23)n1 [B13, 4-(5-Bromo-1H-indol-3-yl)-N-(o-tolyl) pyrimidin-2-amine]",187.6 to 188.4,> 25,14.9%
"Cc1cccc(Nc2nccc(-c3c[nH]c4ccc(Br)cc34)n2)c1 [B14, 4-(5-Bromo-1H-indol-3-yl)-N-(m-tolyl) pyrimidin-2-amine]",141.5 to 142.3,8.6,–
"Cc1ccc(Nc2nccc(-c3c[nH]c4ccc(Br)cc34)n2)cc1 [B15, 4-(5-Bromo-1H-indol-3-yl)-N-(p-tolyl) pyrimidin-2-amine]",227.8 to 228.6,15.5,–

SMILES,melting point [°C],CC50 at 48 h [1] [µM],Cell Glucose Uptake (%) [2]
"COc1ccccc1Nc1nccc(-c2c[nH]c3ccc(Br)cc23)n1 [B16, 4-(5-Bromo-1H-indol-3-yl)-N-(2-methoxyphenyl) pyrimidin-2-amine]",207.9 to 208.3,21.4,17%
"COc1cccc(Nc2nccc(-c3c[nH]c4ccc(Br)cc34)n2)c1 [B17, 4-(5-Bromo-1H-indol-3-yl)-N-(3-methoxyphenyl) pyrimidin-2-amine]",208.7 to 209.3,10.6,–
"COc1ccc(Nc2nccc(-c3c[nH]c4ccc(Br)cc34)n2)cc1 [B18, 4-(5-Bromo-1H-indol-3-yl)-N-(4-methoxyphenyl) pyrimidin-2-amine]",245.7 to 246.3,6,6.1%
"CC(C)c1ccccc1Nc1nccc(-c2c[nH]c3ccc(Br)cc23)n1 [B19, 4-(5-Bromo-1H-indol-3-yl)-N-(2-isopropylphenyl) pyrimidin-2-amine]",110.5 to 111.3,> 25,13%
"CC(C)c1cccc(Nc2nccc(-c3c[nH]c4ccc(Br)cc34)n2)c1 [B20, 4-(5-Bromo-1H-indol-3-yl)-N-(3-isopropylphenyl) pyrimidin-2-amine]",152.6 to 153.4,12.5,–
"CC(C)c1ccc(Nc2nccc(-c3c[nH]c4ccc(Br)cc34)n2)cc1 [B21, 4-(5-Bromo-1H-indol-3-yl)-N-(4-isopropylphenyl) pyrimidin-2-amine]",218.7 to 219.4,13,–
"Brc1ccc2[nH]cc(-c3ccnc(Nc4ccccc4)n3)c2c1 [B22, 4-(5-Bromo-1H-indol-3-yl)-N-phenylpyrimidin-2-amine]",197.6 to 198.7,10.4,–
"Fc1cc(F)cc(Nc2nccc(-c3c[nH]c4ccc(Br)cc34)n2)c1 [B23, 4-(5-Bromo-1H-indol-3-yl)-N-(3,5-difluorophenyl) pyrimidin-2-amine]",251.3 to 252.2,16.1,–
"Clc1cc(Cl)cc(Nc2nccc(-c3c[nH]c4ccc(Br)cc34)n2)c1 [B24, 4-(5-Bromo-1H-indol-3-yl)-N-(3,5-dichlorophenyl) pyrimidin-2-amine]",223.6 to 224.3,10.5,–
"Brc1cc(Br)cc(Nc2nccc(-c3c[nH]c4ccc(Br)cc34)n2)c1 [B25, 4-(5-Bromo-1H-indol-3-yl)-N-(3,5-dibromophenyl) pyrimidin-2-amine]",193.4 to 193.7,> 25,–
"FC(F)(F)c1cc(Nc2nccc(-c3c[nH]c4ccc(Br)cc34)n2)cc(C(F)(F)F)c1 [B26, N-(3,5-bis(trifluoromethyl)phenyl)-4-(5-bromo-1H-indol-3-yl) pyrimidin-2-amine]",220.9 to 221.3,11.8,–
"Cc1cc(C)cc(Nc2nccc(-c3c[nH]c4ccc(Br)cc34)n2)c1 [B27, 4-(5-Bromo-1H-indol-3-yl)-N-(3,5-dimethylphenyl) pyrimidin-2-amine]",184.6 to 185.3,6,–
"COc1cc(Nc2nccc(-c3c[nH]c4ccc(Br)cc34)n2)cc(OC)c1 [B28, 4-(5-Bromo-1H-indol-3-yl)-N-(3,5-dimethoxyphenyl) pyrimidin-2-amine]",255.6 to 256.8,10,–
"COc1cccc(OC)c1Nc1nccc(-c2c[nH]c3ccc(Br)cc23)n1 [B31, 4-(5-Bromo-1H-indol-3-yl)-N-(2,6-dimethoxyphenyl) pyrimidin-2-amine]",244.3 to 245.6,19.2,16%
"Cn1sc(=O)n(Cc2ccccc2)c1=O [TDZD-8, 4-benzyl-2-methyl-1,2,4-thiadiazolidine-3,5-dione, reference compound]",–,> 25,16%
Nc1nccc(-c2c[nH]c3ccc(Br)cc23)n1 [meridianin C],–,13,< 5%
